Measurements from patent US11254686B1 (Corvus Pharmaceuticals, Inc., priority 2017, dated 2022).

Experiments:
Type in all cases: biochemical
adenosine A2B receptor = adenosine A2B receptor (Homo sapiens (Human), UniProt P29275); assay: Adenosine receptor activity assay (Table 1), A2B activity; conditions: for Ratio: A2A activity to the A2B activity, A2A/A2B; for IC50: read-out: Ave A2B cAMP IC50
adenosine A2A receptor = adenosine A2A receptor (Homo sapiens (Human), UniProt P29274); assay: Adenosine receptor activity assay (Table 1), A2A activity; conditions: read-out: Ave A2A cAMP IC50
Sequence of adenosine A2A receptor (P29274 whole entry): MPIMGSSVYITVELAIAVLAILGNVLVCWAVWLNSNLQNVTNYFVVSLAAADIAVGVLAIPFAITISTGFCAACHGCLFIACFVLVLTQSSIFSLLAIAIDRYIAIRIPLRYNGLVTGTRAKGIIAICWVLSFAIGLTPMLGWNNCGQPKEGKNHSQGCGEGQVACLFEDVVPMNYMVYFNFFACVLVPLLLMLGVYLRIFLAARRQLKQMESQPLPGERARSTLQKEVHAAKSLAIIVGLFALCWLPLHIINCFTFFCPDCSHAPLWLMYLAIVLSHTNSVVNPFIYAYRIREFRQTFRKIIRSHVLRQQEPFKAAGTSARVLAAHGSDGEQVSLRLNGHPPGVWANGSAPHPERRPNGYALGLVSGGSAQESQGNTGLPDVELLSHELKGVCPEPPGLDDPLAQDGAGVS

adenosine A1 receptor = adenosine A1 receptor (Homo sapiens (Human), UniProt P30542); assay: Adenosine receptor activity assay (Table 1), A1 cAMP
Sequence of adenosine A1 receptor (P30542 whole entry): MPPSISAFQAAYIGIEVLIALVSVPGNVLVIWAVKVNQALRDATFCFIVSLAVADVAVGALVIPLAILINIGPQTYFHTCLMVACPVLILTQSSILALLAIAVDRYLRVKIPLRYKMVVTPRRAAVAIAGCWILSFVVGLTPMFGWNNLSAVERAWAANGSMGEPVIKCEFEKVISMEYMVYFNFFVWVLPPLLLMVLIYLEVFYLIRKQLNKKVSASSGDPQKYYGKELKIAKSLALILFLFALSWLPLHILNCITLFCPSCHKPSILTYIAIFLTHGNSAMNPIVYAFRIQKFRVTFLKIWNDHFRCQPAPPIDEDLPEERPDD
Method: (§1) Table 1. Compounds (e.g., Adenosine Receptor modulators) and activity assay results. The legend is as follows: A=<10 nM; B=10-50 nM; C=50-100 nM; D=100-500; and E=>500 nM. The ratio corresponds to the A2A activity to the A2B activity; or A2A/A2B.

adenosine A3 receptor = adenosine A3 receptor (Homo sapiens (Human), UniProt P0DMS8); assay: Adenosine receptor activity assay (Table 1), A3 cAMP
Sequence of adenosine A3 receptor (P0DMS8 whole entry): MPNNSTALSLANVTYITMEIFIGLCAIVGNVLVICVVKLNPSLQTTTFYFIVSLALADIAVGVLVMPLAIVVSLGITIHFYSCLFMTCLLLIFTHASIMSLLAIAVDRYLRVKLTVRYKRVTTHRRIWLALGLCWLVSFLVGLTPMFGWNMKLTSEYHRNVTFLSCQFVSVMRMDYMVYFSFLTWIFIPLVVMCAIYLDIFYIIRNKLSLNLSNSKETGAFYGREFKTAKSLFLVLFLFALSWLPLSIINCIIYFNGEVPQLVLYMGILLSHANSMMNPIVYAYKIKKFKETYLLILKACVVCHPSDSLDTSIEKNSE
Method: as §1

Sequence of adenosine A2B receptor (P29275 whole entry): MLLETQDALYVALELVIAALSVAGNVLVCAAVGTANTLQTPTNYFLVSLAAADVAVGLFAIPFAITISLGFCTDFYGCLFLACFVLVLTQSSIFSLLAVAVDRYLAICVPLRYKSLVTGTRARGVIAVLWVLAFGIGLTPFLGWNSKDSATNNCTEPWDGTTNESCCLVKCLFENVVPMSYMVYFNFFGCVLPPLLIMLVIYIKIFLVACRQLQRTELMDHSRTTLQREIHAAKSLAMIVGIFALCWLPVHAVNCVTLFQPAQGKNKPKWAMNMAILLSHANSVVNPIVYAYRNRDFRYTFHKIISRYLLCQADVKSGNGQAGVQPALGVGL

Row | Ratio (adenosine A2B receptor) | IC50 (adenosine A2B receptor) [nM] | IC50 (adenosine A2A receptor) [nM] | IC50 (adenosine A1 receptor) [nM] | IC50 (adenosine A3 receptor) [nM] | SMILES
1 | 38.37 | < 10 | 50 to 100 | 100 to 500 | 50 to 100 | C[C@H](Nc1nc(C(=O)N[C@@H]2CC[C@H](O)C2)c2sccc2n1)c1cncc(F)c1 [Example Z402, 2-(((S)-1-(5-Fluoropyridin-3-yl)ethyl)amino)-N-((1R,3S)-3-hydroxycyclopentyl)thieno[3,2-d]pyrimidine-4-carboxamide]
2 | 42.24 | 10 to 50 | > 500 | > 500 | > 500 | COC[C@@H](Nc1nc(C(=O)NCCc2ccc(O)cc2)c2sccc2n1)c1cccnc1 [Example Z403, (S)—N-(4-Hydroxyphenethyl)-2-((2-methoxy-1-(pyridin-3-yl)ethyl)amino)thieno[3,2-d]pyrimidine-4-carboxamide]
3 | 5.80 | < 10 | 10 to 50 | > 500 | > 500 | C[C@H](Nc1nc(C(=O)N2CC(CNC(=O)OC(C)(C)C)C2)c2sccc2n1)c1cncc(F)c1 [Example Z404, tert-Butyl (S)-((1-(2-((1-(5-fluoropyridin-3-yl)ethyl)amino)thieno[3,2-d]pyrimidine-4-carbonyl)azetidin-3-yl)methyl)carbamate]
4 | 28.50 | < 10 | 100 to 500 | > 500 | > 500 | C[C@H](Nc1nc(C(=O)NCCc2ccc(O)cc2)c2sccc2n1)c1ccnc(F)c1 [Example Z405, (S)-2-((1-(2-Fluoropyridin-4-yl)ethyl)amino)-N-(4-hydroxyphenethyl)thieno[3,2-d]pyrimidine-4-carboxamide]
5 | 5.96 | < 10 | 10 to 50 | 50 to 100 | 50 to 100 | C[C@H](Nc1nc(C(=O)NCCc2cccc(O)c2)c2sccc2n1)c1cncc(F)c1 [Example Z409, (S)-2-((1-(5-Fluoropyridin-3-yl)ethyl)amino)-N-(3-hydroxyphenethyl)thieno[3,2-d]pyrimidine-4-carboxamide]
6 | 69.41 | < 10 | 100 to 500 | > 500 | > 500 | C[C@H](Nc1nc(C(=O)NCCc2ccc(O)cc2)c2sccc2n1)c1ccccn1 [Example Z410, (S)—N-(4-Hydroxyphenethyl)-2-((1-(pyridin-2-yl)ethyl)amino)thieno[3,2-d]pyrimidine-4-carboxamide]
7 | 19.23 | < 10 | 100 to 500 | > 500 | > 500 | COc1cccc(CCNC(=O)c2nc(N[C@@H](C)c3cncc(F)c3)nc3ccsc23)n1 [Example Z411, (S)-2-((1-(5-Fluoropyridin-3-yl)ethyl)amino)-N-(2-(6-methoxypyridin-2-yl)ethyl)thieno[3,2-d]pyrimidine-4-carboxamide]
8 | 126.84 | 10 to 50 | > 500 | > 500 | > 500 | Cc1cc2nc(N[C@@H](C)c3cncc(F)c3)nc(C(=O)N3CC[C@@H](N)C3)c2s1 [Example Z413, ((R)-3-Aminopyrrolidin-1-yl)(2-(((S)-1-(5-fluoropyridin-3-yl)ethyl)amino)-6-methylthieno[3,2-d]pyrimidin-4-yl)methanone]
9 | 19.11 | < 10 | 10 to 50 | 50 to 100 | 50 to 100 | Cc1csc2c(C(=O)N3CCCC3)nc(N[C@@H](C)c3cncc(F)c3)nc12 [Example Z414, (S)-(2-((1-(5-Fluoropyridin-3-yl)ethyl)amino)-7-methylthieno[3,2-d]pyrimidin-4-yl)(pyrrolidin-1-yl)methanone]
10 | 52.64 | < 10 | 100 to 500 | > 500 | > 500 | Cc1csc2c(C(=O)N3CC[C@H](O)C3)nc(N[C@@H](C)c3cncc(F)c3)nc12 [Example Z416, (2-(((S)-1-(5-Fluoropyridin-3-yl)ethyl)amino)-7-methylthieno[3,2-d]pyrimidin-4-yl)((S)-3-hydroxypyrrolidin-1-yl)methanone]
11 | 207.31 | 10 to 50 | > 500 | > 500 | > 500 | CNC1CN(C(=O)c2nc(N[C@@H](C)c3cncc(F)c3)nc3cc(C)sc23)C1 [Example Z418, (S)-(2-((1-(5-Fluoropyridin-3-yl)ethyl)amino)-6-methylthieno[3,2-d]pyrimidin-4-yl)(3-(methylamino)azetidin-1-yl)methanone]
12 | 7.52 | 10 to 50 | 100 to 500 | > 500 | > 500 | COc1ccc(CCCNC(=O)c2nc(N[C@@H](C)c3cncc(F)c3)nc3ccsc23)cc1 [Example Z422, (S)-2-((1-(5-Fluoropyridin-3-yl)ethyl)amino)-N-(3-(4-methoxyphenyl)propyl)thieno[3,2-d]pyrimidine-4-carboxamide]
13 | 5.03 | 50 to 100 | 100 to 500 | 100 to 500 | 100 to 500 | C[C@H](Nc1nc(C(=O)NCCc2cccc(O)c2)c2sccc2n1)c1cccnc1 [Example Z427, (S)—N-(3-Hydroxyphenethyl)-2-((1-(pyridin-3-yl)ethyl)amino)thieno[3,2-d]pyrimidine-4-carboxamide]
14 | 10.94 | 10 to 50 | 100 to 500 | > 500 | > 500 | C[C@H](Nc1nc(C(=O)NCCc2cccc(O)c2)c2sccc2n1)c1ccccn1 [Example Z428, (S)—N-(3-Hydroxyphenethyl)-2-((1-(pyridin-2-yl)ethyl)amino)thieno[3,2-d]pyrimidine-4-carboxamide]
15 | 4.15 | < 10 | 10 to 50 | 50 to 100 | 10 to 50 | Cc1cc2nc(N[C@@H](C)c3cncc(F)c3)nc(C(=O)N3CC(NC(=O)OC(C)(C)C)C3)c2s1 [Example Z429, tert-Butyl (S)-(1-(2-((1-(5-Fluoropyridin-3-yl)ethyl)amino)-6-methylthieno[3,2-d]pyrimidine-4-carbonyl)azetidin-3-yl)carbamate]
16 | 0.04 | 100 to 500 | 10 to 50 | 100 to 500 | 50 to 100 | COc1ccc([C@H](C)Nc2nc(C(=O)NCc3cccnc3)c3sccc3n2)cc1 [Example Z435, (S)-2-((1-(4-Methoxyphenyl)ethyl)amino)-N-(pyridin-3-ylmethyl)thieno[3,2-d]pyrimidine-4-carboxamide]
17 | 0.35 | 10 to 50 | 10 to 50 | 50 to 100 | 10 to 50 | Cc1csc2c(C(=O)NCc3ccccn3)nc(N[C@@H](C)c3ccccn3)nc12 [Example Z451, (S)-7-Methyl-2-((1-(pyridin-2-yl)ethyl)amino)-N-(pyridin-2-ylmethyl)thieno[3,2-d]pyrimidine-4-carboxamide]
18 | 2.47 | < 10 | 10 to 50 | > 500 | 50 to 100 | Cc1csc2c(C(=O)NC3CCC3)nc(N[C@@H](C)c3ccccn3)nc12 [Example Z456, (S)—N-Cyclobutyl-7-methyl-2-((1-(pyridin-2-yl)ethyl)amino)thieno[3,2-d]pyrimidine-4-carboxamide]
19 | 0.72 | 10 to 50 | 10 to 50 | > 500 | > 500 | Cc1csc2c(C(=O)NCc3cccnc3)nc(N[C@@H](C)c3ccccn3)nc12 [Example Z458, (S)-7-Methyl-2-((1-(pyridin-2-yl)ethyl)amino)-N-(pyridin-3-ylmethyl)thieno[3,2-d]pyrimidine-4-carboxamide]
20 | 2.40 | 10 to 50 | 10 to 50 | > 500 | > 500 | Cc1csc2c(C(=O)N3CCCC3)nc(N[C@@H](C)c3ccccn3)nc12 [Example Z459, (S)-(7-methyl-2-((1-(pyridin-2-yl)ethyl)amino)thieno[3,2-d]pyrimidin-4-yl)(pyrrolidin-1-yl)methanone]
21 | 3.15 | 10 to 50 | 10 to 50 | > 500 | 50 to 100 | Cc1cc2nc(N[C@@H](C)c3ccccn3)nc(C(=O)NCc3ccccn3)c2s1 [Example Z461, (S)-6-Methyl-2-((1-(pyridin-2-yl)ethyl)amino)-N-(pyridin-2-ylmethyl)thieno[3,2-d]pyrimidine-4-carboxamide]
22 | 2.70 | 10 to 50 | 50 to 100 | > 500 | 50 to 100 | Cc1cc2nc(N[C@@H](C)c3ccccn3)nc(C(=O)NCc3cccnc3)c2s1 [Example Z462, (S)-6-Methyl-2-((1-(pyridin-2-yl)ethyl)amino)-N-(pyridin-3-ylmethyl)thieno[3,2-d]pyrimidine-4-carboxamide]
23 | 4.90 | 10 to 50 | 100 to 500 | > 500 | 50 to 100 | COC[C@@H]1CCN(C(=O)c2nc(N[C@@H](C)c3ccccn3)nc3cc(C)sc23)C1 [Example Z467, ((R)-3-(Methoxymethyl)pyrrolidin-1-yl)(6-methyl-2-(((S)-1-(pyridin-2-yl)ethyl)amino)thieno[3,2-d]pyrimidin-4-yl)methanone]
24 | 24.67 | 10 to 50 | > 500 | > 500 | > 500 | COC[C@H]1CCN(C(=O)c2nc(N[C@@H](C)c3ccccn3)nc3cc(C)sc23)C1 [Example Z468, ((S)-3-(Methoxymethyl)pyrrolidin-1-yl)(6-methyl-2-(((S)-1-(pyridin-2-yl)ethyl)amino)thieno[3,2-d]pyrimidin-4-yl)methanone]
